Assay results as given in US12612413B2, “Heteroaryl compounds as inhibitors of programmed necrosis pathway, composition and method using the same” (ACCRO BIOSCIENCE INC., priority 2020, dated 2026).
pEC50: −log10 of the molar value.

Each compound was assayed on HT-29 cells (assay: HT-29 cell viability (necroptosis) assay). Conditions: Homo sapiens, TNF-α (40 ng/mL), Smac mimetic (100 nM), z-VAD (20 μM), 40 h, from survival rate curve.
Type: cell-based
Experimental: Human colon cancer HT-29 cells were used in a necroptosis assay. For this assay, HT-29 cells were added to 96-well plates. The compounds at different concentrations (0.3, 1.0, 3.0, 10.0, 20.0 μM) were then preprocessed for two hours. TNF-α (40 ng/mL), Smac mimetic (100 nM) and z-VAD (20 μM) were added, and the mixture was incubated for 40 h. Quantitative analysis of cell viability was conducted. DMSO pretreatment group was used as a negative control. Concentration for 50% of maximal effect was calculated according to the curve of the survival rate measured at different concentrations. FIG. 1 depicts the EC50 curves of compound A16.
Compound `COC1=C(C)S(=O)(=O)c2cc3c(Nc4ccc5scnc5c4)ccnc3cc21` [Compound A19] has a pEC50 of 6.70. In the case of `COc1c2c(cc3c(Nc4ccc5scnc5c4)ccnc13)S(=O)(=O)C=C2` [Compound A108], the pEC50 was 6.20. `Cc1cc(C2=CS(=O)(=O)c3cc4c(Nc5ccc6scnc6c5)ccnc4cc32)n(C)n1` [Compound A32] showed a pEC50 of 5.92. `O=S1(=O)C=C(OC2COC2)c2cc3nccc(Nc4ccc5scnc5c4)c3cc21` [Compound A118] showed a pEC50 of 6.54. In the case of `O=S1(=O)C=C(c2ccc(F)cc2)c2cc3nccc(Nc4ccc5scnc5c4)c3cc21` [Compound A26], the pEC50 was 6.24. Compound `Cc1ccc(O)cc1Nc1ccnc2cc3c(cc12)S(=O)(=O)C(C)(C)C3=O` [Compound B13] has a pEC50 of 6.28. In the case of `CCC1=CS(=O)(=O)c2cc3c(Nc4ccc5scnc5c4)ccnc3cc21` [Compound A10], the pEC50 was 5.86. `NCCOC1=CS(=O)(=O)c2cc3c(Nc4ccc5scnc5c4)ccnc3cc21` [Compound A110] showed a pEC50 of 5.68. Work on `O=S1(=O)C=C(C2CC2)c2cc3nccc(Nc4ccc5cn[nH]c5c4)c3cc21` [Compound A91] yielded a pEC50 of 6.80. Work on `Cn1cc(C2=CS(=O)(=O)c3cc4c(Nc5ccc6scnc6c5)ccnc4cc32)cn1` [Compound A31] yielded a pEC50 of 5.99. `N#Cc1ccc(C2=CS(=O)(=O)c3cc4c(Nc5ccc6scnc6c5)ccnc4cc32)cc1` [Compound A25] gave a pEC50 of 6.52. `CC1=Cc2cc3nccc(Nc4cc(O)ccc4F)c3cc2S1(=O)=O` [Compound A52] gave a pEC50 of 6.59. Work on `O=S1(=O)C=C(OCCO)c2cc3nccc(Nc4ccc5scnc5c4)c3cc21` [Compound A16, 8-(benzo[d]thiazol-5-ylamino)-3-(2-hydroxyethoxy)thieno[2,3-g]quinoline 1,1-dioxide] yielded a pEC50 of 5.89. Compound `COc1ccc(C2=CS(=O)(=O)c3cc4c(Nc5ccc6scnc6c5)ccnc4cc32)cc1` [Compound A23] has a pEC50 of 5.98. `O=S1(=O)C=C(OC2CCNC2)c2cc3nccc(Nc4ccc5scnc5c4)c3cc21` (centres unmarked) [Compound A113] was tested, and the pEC50 was 5.70. `O=S1(=O)C=C(C2CC2)c2cc3nccc(Nc4cncc(O)c4)c3cc21` [Compound A102] gave a pEC50 of 5.05. `O=S1(=O)C=C(OC2CCOC2)c2cc3nccc(Nc4ccc5scnc5c4)c3cc21` (centres unmarked) [Compound A115] was tested, and the pEC50 was 6.55. Work on `O=S1(=O)C=C(O[C@@H]2CCOC2)c2cc3nccc(Nc4ccc5scnc5c4)c3cc21` [Compound A116] yielded a pEC50 of 6.59. For `O=S1(=O)C(C2CC2)=Cc2cc3nccc(Nc4ccc5scnc5c4)c3cc21` [Compound A6], the pEC50 was 6.27. Work on `O=S1(=O)C=C(C2CC2)c2cc3nccc(Nc4cc(O)c(F)cc4F)c3cc21` [Compound A100] yielded a pEC50 of 6.02. In the case of `COC1=CS(=O)(=O)c2cc3c(Nc4ccc5scnc5c4)ccnc3cc21` [Compound A12, 8-(benzo[d]thiazol-5-ylamino)-3-methoxythieno[2,3-g]quinoline 1,1-dioxide], the pEC50 was 5.99. With `O=S1(=O)C=C(c2cccnc2)c2cc3nccc(Nc4ccc5scnc5c4)c3cc21` [Compound A27] the pEC50 was 6.31. Compound `CC1=CS(=O)(=O)c2cc3c(Nc4cc(O)c(F)cc4F)ccnc3cc21` [Compound A83] has a pEC50 of 6.00. Work on `Cc1[nH]nc(Nc2ccnc3cc4c(cc23)S(=O)(=O)C=C4C2CC2)c1C` [Compound A96] yielded a pEC50 of 6.23. Compound `O=S1(=O)C=C(C2CC2)c2cc3nccc(Nc4ccc5nn[nH]c5c4)c3cc21` [Compound A92] has a pEC50 of 6.38. `CC1=Cc2cc3nccc(Nc4ccc(O)c(C#N)c4)c3cc2S1(=O)=O` [Compound A58] gave a pEC50 of 5.40. For `O=S1(=O)C=Cc2cc3nccc(Nc4ccc5scnc5c4)c3cc21` [Compound A2], the pEC50 was 5.99.

Same assay, conditions: Homo sapiens, compound at 20 μM, TNF-α (40 ng/mL), Smac mimetic (100 nM), z-VAD (20 μM), 40 h, read-out: HT-29(20 μM) Survival
`O=S1(=O)c2cc3c(Nc4ccc5scnc5c4)ccnc3cc2OCC12CC2` [Compound B25] was tested, and the viability at 20 µM was 70.7%. In the case of `CC(C)C1=CS(=O)(=O)c2cc3c(Nc4ccc5scnc5c4)ccnc3cc21` [Compound A11], the viability at 20 µM was 34.5%. `CC1=Cc2cc3nccc(Nc4ccc5nc[nH]c5c4)c3cc2S1(=O)=O` [Compound A40] gave a viability at 20 µM of 5.8%. `Nc1cc(C2=CS(=O)(=O)c3cc4c(Nc5ccc6scnc6c5)ccnc4cc32)ccn1` [Compound A29] was tested, and the viability at 20 µM was 1.1%. For `CCC1(C)C(C)c2cc3nccc(Nc4ccc5scnc5c4)c3cc2S1(=O)=O` (centres unmarked) [Compound B5], the viability at 20 µM was 39.2%. In the case of `CC1=Cc2cc3nccc(Nc4ccc5c(c4)C(=O)NCC5)c3cc2S1(=O)=O` [Compound A43], the viability at 20 µM was 48.8%. `O=S1(=O)C=C(n2ccnc2)c2cc3nccc(Nc4ccc5scnc5c4)c3cc21` [Compound A34] was tested, and the viability at 20 µM was 15.5%. `CC1=Cc2cc3nccc(Nc4ccc(O)c(F)c4)c3cc2S1(=O)=O` [Compound A54] gave a viability at 20 µM of 31.9%. Work on `CC1=CS(=O)(=O)c2cc3c(Nc4n[nH]c5ccc(F)cc45)ccnc3cc21` [Compound A73] yielded a viability at 20 µM of 40.7%. `CC1=CS(=O)(=O)c2cc3c(Nc4cc(N)ccc4C)ccnc3cc21` [Compound A78] showed a viability at 20 µM of 10.5%. For `CC1=Cc2cc3nccc(Nc4ccc(O)c(C(F)(F)F)c4)c3cc2S1(=O)=O` [Compound A57], the viability at 20 µM was 15.3%. In the case of `CC1=Cc2cc3nccc(Nc4ccnc(N)c4)c3cc2S1(=O)=O` [Compound A65, 8-((2-aminopyridin-4-yl)amino)-2-methylthieno[2,3-g]quinoline 1,1-dioxide], the viability at 20 µM was 19.5%. `CC1=Cc2cc3nccc(Nc4cncc(N)c4)c3cc2S1(=O)=O` [Compound A64] gave a viability at 20 µM of 20.2%. In the case of `CC1(C)C(O)(C2CC2)c2cc3nccc(Nc4ccc5scnc5c4)c3cc2S1(=O)=O` (centres unmarked) [Compound B11], the viability at 20 µM was 26.2%. With `CC1=Cc2cc3nccc(Nc4cc(F)cc(F)n4)c3cc2S1(=O)=O` [Compound A70] the viability at 20 µM was 16.5%. `CC1=Cc2cc3nccc(Nc4ccc5c(c4)CN(C)CC5)c3cc2S1(=O)=O` [Compound A42] gave a viability at 20 µM of 23.1%. In the case of `CC1=Cc2cc3nccc(Nc4cnc5snc(C)c5c4)c3cc2S1(=O)=O` [Compound A44], the viability at 20 µM was 20.1%. Work on `CC1=Cc2cc3nccc(Nc4cc(O)cc(F)c4)c3cc2S1(=O)=O` [Compound A59] yielded a viability at 20 µM of 27.9%. `O=S1(=O)C=C(Br)c2cc3nccc(Nc4ccc5scnc5c4)c3cc21` [Compound A1, 8-(benzo[d]thiazol-5-ylamino)-3-bromothieno[2,3-g]quinoline 1,1-dioxide] gave a viability at 20 µM of 4.5%. With `CC(=O)Nc1ccc(C)c(Nc2ccnc3cc4c(cc23)S(=O)(=O)C(C)=C4)c1` [Compound A48] the viability at 20 µM was 7.8%. For `O=S1(=O)C=C(C2CC2)c2cc3nccc(Nc4ccc5nc[nH]c5c4)c3cc21` [Compound A94], the viability at 20 µM was 28.9%. `CC1=Cc2cc3nccc(Nc4cc(N)cc(F)n4)c3cc2S1(=O)=O` [Compound A71, 8-((4-amino-6-fluoropyridin-2-yl)amino)-2-methylthieno[2,3-g]quinoline 1,1-dioxide] gave a viability at 20 µM of 23.4%. For `CC1=Cc2cc3nccc(Nc4cc(N)ncc4C)c3cc2S1(=O)=O` [Compound A63], the viability at 20 µM was 48.8%. `C=CCC1(C)C(=O)c2cc3nccc(Nc4ccc5scnc5c4)c3cc2S1(=O)=O` (centres unmarked) [Compound B6] showed a viability at 20 µM of 42.5%. For `CC1=Cc2cc3nccc(Nc4cnc5scnc5c4)c3cc2S1(=O)=O` [Compound A45], the viability at 20 µM was 27.6%. With `CC1=CS(=O)(=O)c2cc3c(Nc4ccc5cn[nH]c5c4)ccnc3cc21` [Compound A72] the viability at 20 µM was 40.7%. `Cc1n[nH]c(Nc2ccnc3cc4c(cc23)S(=O)(=O)C(C)(C)C4=O)c1C` [Compound B18] showed a viability at 20 µM of 22.7%. For `CC1=Cc2cc3nccc(Nc4cc(O)ccc4C)c3cc2S1(=O)=O` [Compound A46], the viability at 20 µM was 13.1%. With `CC1(C)C(=O)c2cc3nccc(Nc4n[nH]c5ccc(F)cc45)c3cc2S1(=O)=O` [Compound B19] the viability at 20 µM was 7.2%. `O=C1NCCc2ccc(Nc3ccnc4cc5c(cc34)S(=O)(=O)C=C5C3CC3)cc21` [Compound A93] was tested, and the viability at 20 µM was 11.1%. `CC1=Cc2cc3nccc(Nc4n[nH]c(C)c4C)c3cc2S1(=O)=O` [Compound A38] was tested, and the viability at 20 µM was 37.6%. Work on `CC1=CS(=O)(=O)c2cc3c(Nc4cc(O)ccc4F)ccnc3cc21` [Compound A79] yielded a viability at 20 µM of 39.4%. `O=S1(=O)CC(c2ccccc2)c2cc3nccc(Nc4ccc5scnc5c4)c3cc21` (centres unmarked) [Compound B23] showed a viability at 20 µM of 12.7%. Compound `O=S1(=O)CC2(COC2)c2cc3nccc(Nc4ccc5scnc5c4)c3cc21` [Compound B28, 8′-(benzo[d]thiazol-5-ylamino)-2′H-spiro[oxetane-3,3′-thieno[2,3-g]quinoline] 1′, 1′-dioxide] has a viability at 20 µM of 15%. `CNCCOC1=CS(=O)(=O)c2cc3c(Nc4ccc5scnc5c4)ccnc3cc21` [Compound A111] showed a viability at 20 µM of 42%. `COc1ccc(C)c(Nc2ccnc3cc4c(cc23)S(=O)(=O)C(C)=C4)c1` [Compound A47] gave a viability at 20 µM of 17.5%. In the case of `N#Cc1cc(O)cc(Nc2ccnc3cc4c(cc23)S(=O)(=O)C=C4C2CC2)c1` [Compound A99], the viability at 20 µM was 72.7%. With `C#Cc1cc(O)cc(Nc2ccnc3cc4c(cc23)S(=O)(=O)C(C)=C4)c1` [Compound A62] the viability at 20 µM was 22.3%. `COc1ccc(C2CS(=O)(=O)c3cc4c(Nc5ccc6scnc6c5)ccnc4cc32)cc1` (centres unmarked) [Compound B24] was tested, and the viability at 20 µM was 16.5%. With `O=S1(=O)C=C(C2CC2)c2cc3nccc(Nc4n[nH]c5ccc(F)cc45)c3cc21` [Compound A90] the viability at 20 µM was 36%. For `CC1=CS(=O)(=O)c2cc3c(Nc4cc(O)cc(C(F)(F)F)c4)ccnc3cc21` [Compound A82], the viability at 20 µM was 11%. For `O=S1(=O)c2cc3c(Nc4ccc5scnc5c4)ccnc3cc2OCC12CCC2` [Compound B26], the viability at 20 µM was 72.6%. For `CC1=Cc2cc3nccc(Nc4ccc5ncnn5c4)c3cc2S1(=O)=O` [Compound A68], the viability at 20 µM was 11.9%. `CC1=Cc2cc3nccc(Nc4cc(O)cc(Br)c4)c3cc2S1(=O)=O` [Compound A60] gave a viability at 20 µM of 13.9%.
